In PubChem BioAssay (NCI) one finds TGI and GI50 data, which are given here for 20 molecules.

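Results reflect a 48-hour exposure of cells in 96-well plates to compound at five concentrations. GI50 = concentration required for 50% inhibition of growth. TGI is the concentration that stops growth completely.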

For one assay, the system named is DMS 114 small cell lung. Put plainly: NCI tumour cell line growth inhibition, 48 h.
The molecule `N#C[C@H](OC1OC(COC2OC(CO)C(O)C(O)C2O)C(O)C(O)C1O)c1ccccc1` (stereo partly drawn) yielded a TGI above 250 µM.

In the case of `CCN(CC)c1ccc2cc(C(=O)Nc3ccc4[nH]c(C(=O)N5C[C@@H](CCl)c6c5cc(OC(=O)Nc5ccccc5)c5[nH]cc(C)c65)cc4c3)oc2c1`, the GI50 was 254 µM and the TGI is above 1000 µM.

Turning to `CC(=O)Oc1cc2c(cc1OC(C)=O)OCC(c1ccccc1)C2` (stereo not drawn), the TGI worked out at 32.3 µM.

In the case of `O=C(O)c1cc2c(ncc3c(=O)n(-c4ccccc4)[nH]c32)s1`, the TGI is above 100 µM.

Molecule `O=C(CCl)NNC1=Nc2ccc(Cl)cc2SC1` showed a TGI of 3.86 µM.

The molecule `Cc1ccc(C2OC(COCc3ccc(Cl)cc3)C(OCc3ccc(Cl)cc3)C2O)cc1` (stereo not drawn) gave a TGI of 22.2 µM.

For `C[N+](C)(C)CCc1ccccc1`, the TGI was above 100 µM.

The molecule `CCCNC(=O)C(C)C1CCC2(C)C=CC(=O)C(C)=C2C1O` (stereo not drawn) showed a TGI above 100 µM.

Consider `O=C(Nc1nc2ccc([N+](=O)[O-])cc2s1)C(=O)C(C(=O)c1ccccc1F)C1OC(=O)c2ccccc21` (stereo not drawn), for which the TGI was 87.3 µM.

In turn, `Nc1ccn(C2C=C(CO)C(O)C2O)c(=O)c1` (stereo not drawn) yielded a TGI above 625 µM.

`COc1nc(=O)n(COC(CO)CN2C(=O)c3ccccc3C2=O)cc1Cc1cccc(OCc2ccccc2)c1` (stereo not drawn) registered a TGI of 59.1 µM.

In another assay the test system is OVCAR-5 ovarian. Put plainly: NCI tumour cell line growth inhibition, 48 h.
In the case of `N#C[C@H](OC1OC(COC2OC(CO)C(O)C(O)C2O)C(O)C(O)C1O)c1ccccc1` (stereo partly drawn), the TGI was above 250 µM.

Turning to `CCN(CC)c1ccc2cc(C(=O)Nc3ccc4[nH]c(C(=O)N5C[C@@H](CCl)c6c5cc(OC(=O)Nc5ccccc5)c5[nH]cc(C)c65)cc4c3)oc2c1`, the GI50 was 264 µM and the TGI was determined as 633 µM.

Turning to `Cn1c(=O)c2[nH]c(CCNC(=O)c3ccccc3)nc2n(C)c1=O`, the TGI was above 100 µM.

For `Cc1cc(S(=O)(=O)Nc2nc3ccccc3nc2-c2cccc([N+](=O)[O-])c2)c(S)cc1Cl`, the TGI was determined as 88.4 µM.

`O=c1ssc(=Nc2ccccc2)n1-c1ccccc1` gave a TGI above 100 µM.

Regarding `NCCSS(=O)(=O)CCN`, the TGI was above 100 µM.

Regarding `CC(=O)Oc1cc2c(cc1OC(C)=O)OCC(c1ccccc1)C2` (stereo not drawn), the TGI is 61.7 µM.

Molecule `OCCNCCN1CCN(CCCN2c3ccccc3Sc3ccc(C(F)(F)F)cc32)CC1` gave a TGI of 43.5 µM.

As for `O=C(O)c1cc2c(ncc3c(=O)n(-c4ccccc4)[nH]c32)s1`, the TGI was above 100 µM.

`O=C(CCl)NNC1=Nc2ccc(Cl)cc2SC1`: the TGI is 4.16 µM.

Molecule `CCCc1c(-c2ccccc2)[nH]c2ccccc2c1=O` registered a TGI above 100 µM.

For `Cc1ccc(C2OC(COCc3ccc(Cl)cc3)C(OCc3ccc(Cl)cc3)C2O)cc1` (stereo not drawn), the TGI was above 100 µM.

`CO/N=C(/C)c1ccc(NC(=O)CSc2nnc(-c3ccncc3)n2-c2ccccc2)cc1`: the GI50 was above 100 µM and the TGI was above 100 µM.

For the molecule `C[N+](C)(C)CCc1ccccc1`, the TGI is above 100 µM.

Take `COc1c(Br)cc2c(c1OC)C(Br)CCC(Br)(Br)C2=O` (stereo not drawn): the TGI stood at 13.6 µM.

On to `O=C1C=CC2(C=C1)O[C@H](Cc1ccccc1)[C@@H](Cc1ccccc1)O2`, for which the TGI turned out to be 1.34 µM.

`CCCNC(=O)C(C)C1CCC2(C)C=CC(=O)C(C)=C2C1O` (stereo not drawn): the TGI is above 100 µM.

`O=C(Nc1nc2ccc([N+](=O)[O-])cc2s1)C(=O)C(C(=O)c1ccccc1F)C1OC(=O)c2ccccc21` (stereo not drawn): the TGI was above 100 µM.

The subject of a further assay is HS 578T breast. Put plainly: NCI tumour cell line growth inhibition, 48 h.
The molecule `Cn1c(=O)c2[nH]c(CCNC(=O)c3ccccc3)nc2n(C)c1=O` showed a TGI above 100 µM.

`Cc1cc(S(=O)(=O)Nc2nc3ccccc3nc2-c2cccc([N+](=O)[O-])c2)c(S)cc1Cl` registered a TGI of 73.4 µM.

`O=c1ssc(=Nc2ccccc2)n1-c1ccccc1` registered a TGI of 98.7 µM.

Molecule `NCCSS(=O)(=O)CCN` yielded a TGI above 100 µM.

In turn, `OCCNCCN1CCN(CCCN2c3ccccc3Sc3ccc(C(F)(F)F)cc32)CC1` yielded a TGI of 70.1 µM.

With `CCCc1c(-c2ccccc2)[nH]c2ccccc2c1=O`, the TGI is above 100 µM.

In turn, `COc1c(Br)cc2c(c1OC)C(Br)CCC(Br)(Br)C2=O` (stereo not drawn) showed a TGI above 71.7 µM.

As to `O=C1C=CC2(C=C1)O[C@H](Cc1ccccc1)[C@@H](Cc1ccccc1)O2`, the TGI came out at 2.42 µM.

The subject of another assay is NCI-H460 lung. Put plainly: NCI tumour cell line growth inhibition, 48 h.
Molecule `N#C[C@H](OC1OC(COC2OC(CO)C(O)C(O)C2O)C(O)C(O)C1O)c1ccccc1` (stereo partly drawn) came in with a TGI above 250 µM.

As to `CCN(CC)c1ccc2cc(C(=O)Nc3ccc4[nH]c(C(=O)N5C[C@@H](CCl)c6c5cc(OC(=O)Nc5ccccc5)c5[nH]cc(C)c65)cc4c3)oc2c1`, the GI50 was 39.4 µM.

Turning to `Cn1c(=O)c2[nH]c(CCNC(=O)c3ccccc3)nc2n(C)c1=O`, the TGI was above 100 µM.

Molecule `Cc1cc(S(=O)(=O)Nc2nc3ccccc3nc2-c2cccc([N+](=O)[O-])c2)c(S)cc1Cl` showed a TGI of 35.3 µM.

`O=c1ssc(=Nc2ccccc2)n1-c1ccccc1` came in with a TGI above 100 µM.

The molecule `NCCSS(=O)(=O)CCN` displayed a TGI above 100 µM.

Regarding `CC(=O)Oc1cc2c(cc1OC(C)=O)OCC(c1ccccc1)C2` (stereo not drawn), the TGI was 57.9 µM.

`OCCNCCN1CCN(CCCN2c3ccccc3Sc3ccc(C(F)(F)F)cc32)CC1` gave a TGI of 44.7 µM.

In turn, `O=C(O)c1cc2c(ncc3c(=O)n(-c4ccccc4)[nH]c32)s1` showed a TGI above 100 µM.

With `O=C(CCl)NNC1=Nc2ccc(Cl)cc2SC1`, the TGI was 20.4 µM.

Take `CCCc1c(-c2ccccc2)[nH]c2ccccc2c1=O`: the TGI was above 100 µM.

In the case of `Cc1ccc(C2OC(COCc3ccc(Cl)cc3)C(OCc3ccc(Cl)cc3)C2O)cc1` (stereo not drawn), the TGI stood at 14.9 µM.

As to `C[N+](C)(C)CCc1ccccc1`, the TGI is above 100 µM.

In the case of `COc1c(Br)cc2c(c1OC)C(Br)CCC(Br)(Br)C2=O` (stereo not drawn), the TGI came to 8.92 µM.

`O=C1C=CC2(C=C1)O[C@H](Cc1ccccc1)[C@@H](Cc1ccccc1)O2`: the TGI was 30.8 µM.

Molecule `CCCNC(=O)C(C)C1CCC2(C)C=CC(=O)C(C)=C2C1O` (stereo not drawn) gave a TGI above 100 µM.

For the molecule `O=C(Nc1nc2ccc([N+](=O)[O-])cc2s1)C(=O)C(C(=O)c1ccccc1F)C1OC(=O)c2ccccc21` (stereo not drawn), the TGI was above 100 µM.

In turn, `Nc1ccn(C2C=C(CO)C(O)C2O)c(=O)c1` (stereo not drawn) displayed a TGI above 625 µM.

For a further assay, the system named is MDA-MB-231 breast. Put plainly: NCI tumour cell line growth inhibition, 48 h.
In turn, `Cn1c(=O)c2[nH]c(CCNC(=O)c3ccccc3)nc2n(C)c1=O` had a TGI above 100 µM.

For `Cc1cc(S(=O)(=O)Nc2nc3ccccc3nc2-c2cccc([N+](=O)[O-])c2)c(S)cc1Cl`, the TGI was above 100 µM.

On to `O=c1ssc(=Nc2ccccc2)n1-c1ccccc1`, for which the TGI was found to be 60.5 µM.

`NCCSS(=O)(=O)CCN`: the TGI is above 100 µM.

As to `OCCNCCN1CCN(CCCN2c3ccccc3Sc3ccc(C(F)(F)F)cc32)CC1`, the TGI turned out to be 35.5 µM.

As to `CCCc1c(-c2ccccc2)[nH]c2ccccc2c1=O`, the TGI was above 100 µM.

On to `CO/N=C(/C)c1ccc(NC(=O)CSc2nnc(-c3ccncc3)n2-c2ccccc2)cc1`, for which the GI50 is 2.57 µM and the TGI is 8.79 µM.

`COc1c(Br)cc2c(c1OC)C(Br)CCC(Br)(Br)C2=O` (stereo not drawn) gave a TGI of 8.32 µM.

The molecule `O=C1C=CC2(C=C1)O[C@H](Cc1ccccc1)[C@@H](Cc1ccccc1)O2` showed a TGI of 5.44 µM.

For a further assay, the system named is CCRF-CEM leukemia. Put plainly: NCI tumour cell line growth inhibition, 48 h.
In turn, `N#C[C@H](OC1OC(COC2OC(CO)C(O)C(O)C2O)C(O)C(O)C1O)c1ccccc1` (stereo partly drawn) displayed a TGI above 250 µM.

As to `CCN(CC)c1ccc2cc(C(=O)Nc3ccc4[nH]c(C(=O)N5C[C@@H](CCl)c6c5cc(OC(=O)Nc5ccccc5)c5[nH]cc(C)c65)cc4c3)oc2c1`, the GI50 is 178 µM and the TGI is above 1000 µM.

For `Cn1c(=O)c2[nH]c(CCNC(=O)c3ccccc3)nc2n(C)c1=O`, the TGI is above 100 µM.

In turn, `Cc1cc(S(=O)(=O)Nc2nc3ccccc3nc2-c2cccc([N+](=O)[O-])c2)c(S)cc1Cl` gave a TGI of 75.7 µM.
